≈ marks a conversion by molar mass, not a printed value. Read-outs that look alike come from different tables or passages of the source.
How the values were obtained:
[1] = tested on: Myzus persicae; assay: whole plant or invertebrate; conditions: foliar; for LC50: read-out: LC50 (95% CI's)
[2] = tested on: Aedes aegypti L3 larvae; assay: Mosquito larval topical dose-mortality assay (synergism); assay type: in vivo; conditions: for LC50: Aedes aegypti, topical
Description: The efficacy of a flavesone formulation against mosquito larvae was investigated together with investigation of the potential for synergistic action of flavesone and one or more technical grade insecticides. Dose-mortality assays were performed to evaluate the toxicity of technical grade insecticide, here the synthetic pyrethroid (SP) permethrin at various concentrations (minimum five dose points) alone and co-administered with flavesone at single point dose was performed. Assays were conducted using L3 larvae of the Liverpool (SP susceptible) and Puerto Rico (SP resistant) strains of the yellow fever mosquito, Aedes aegypti maintained in continuous culture at Purdue University, US. Larvae were transferred to a 24 well tissue plate using a wide-bore plastic transfer pipette, 5 larvae per well. The water was gently removed from the well with a 1 mL pipette and an equivalent amount of ddH2O was added. The appropriate volume of test compound was added to each of the four replicate wells per treatment and the plate gently swirled to ensure uniform mixing. The plate was placed in a test or growth chamber under constant conditions of 22-25° C. and about 75-85% relative humidity on a 12 h light/12 hr dark cycle. Assays were scored for the phenotypic endpoint of death/paralysis at 24, 48 and 72 hours post exposure. Each assay incorporated a positive (flavesone) and negative (vehicle only) control, and minimum of four technical replicates per dose of test chemistry. The data reported here represent three biological replicates.
Pilot assays were first employed to determine dose of flavesone (LC50, LC25 or LC10 dose as determined in previous dose-mortality tests) appropriate for synergism assays. […] The Synergistic Ratio (SR) for insecticide+flavesone combination is also shown and the synergistic action evaluated as per the published studies of Ahmed and Matsumura (2012, Journal of Medical Entomology 49(6):1405-10) and Ahmed and Vogel (2015, Acta Tropica 155:1-5).

[3] = tested on: Dorsal root ganglion (DRG) cells; assay: Whole-cell patch-clamp current-clamp recording of dorsal root ganglion cells (membrane potential, action potentials); assay type: cell-based, Sprague-Dawley rats
Description: (§1) Dorsal root ganglion (DRG) cells were obtained from young adult male Sprague-Dawley rats weighing 220-250 g. The rats were housed in groups of 4 in an air conditioned room on a 12 hour light/dark cycle with food and water available ad libitum.
(§2) Animals were humanely killed and the lower thoracic and upper lumbar region DRG removed and stored in chilled phosphate buffered saline (PBS). The DRG were carefully trimmed and then digested using 2 mg/mL trypsin (type XII-S) and 2 mg/mL collagenase (type XI), freshly made up in PBS, for 45-60 mins in a shaking water bath at 37° C. Subsequent to extensive washing with PBS and then plating medium (PM; 50:50 mix of DMEM/Hams F12, supplemented with 10% foetal bovine serum, 100 U/mL penicillin and 100 μg/mL streptomycin), careful trituration of the DRG was carried out using sterile fire polished glass pipettes of decreasing diameter and the cells were plated on coated glass coverslips (BD Biosciences, BD Biocoat, poly-D-Lysine), contained in 35 mm tissue culture dishes so that the cells could be easily transferred to the recording chamber mounted on an Olympus IX51 […] microscope for electrophysiological recording. Cells were incubated under standard tissue culture conditions (36° C. in a humidified atmosphere of 5% CO2, 95% air) and were used within 48-72 hours of plating.
(§3) Whole-cell patch-clamp recordings were conducted at room temperature ([…]) using an Axopatch 200B amplifier (Axon Instruments Inc., USA) with 3-7 MΩ electrodes, depending on the patch success rate and recording quality. Data were filtered and digitized appropriately. Current-clamp recordings were performed with pipette solution of the following composition: 140 mM KCl, 0.5 mM EGTA, 5 mM HEPES, 3 mM Mg-ATP and 3 mM Na-GTP (pH 7.3), adjusted to 310 mOsm/L with glucose. The bathing solution contained: 140 mM NaCl, 3 mM KCl, 2 mM MgCl2, 2 mM CaCl2, and 10 mM HEPES (pH 7.3), adjusted to 315 mOsm/L with glucose. Passive membrane properties (e.g. resting membrane potential (Vm)) were monitored during the first few minutes from establishing whole-cell access and periodically during recording. Evoked potential recordings commenced 3-5 minutes after establishing whole-cell configuration.
(§4) Flavesone test solutions were prepared fresh from a stock solution (96.7% w/w) on the day of recording. 100 μL of flavesone composition was mixed with 100 µL of Tween 80 and diluted to 10 mL in artificial cerebrospinal fluid (aCSF) to give a final flavesone concentration of 1%. The pH of the 1% solution was adjusted to 7.3 with 1M NaOH and diluted to 0.5% and 0.25% flavesone concentration with aCSF containing 1% Tween 80 immediately prior to use. Test compounds were applied using a DAD-16VC fast perfusion system (ALA Scientific Instruments, USA) and compared to the results gathered using control flow. The control was aSCF with 1% Tween 80.
(§5) Comparison samples of permethrin were prepared as 100 μM permethrin in […] (DMSO).
(§6) All analysis was conducted using Clampfit (MDS Analytical Technologies) and Excel (Microsoft) software. Statistical comparisons between groups were performed using the Student's t-test with P<0.05 taken to identify a significant difference.

[4] = tested on: sodium channels; assay: Sodium conductance in the DRG (voltage clamp recording); assay type: cell-based, Sprague-Dawley rats; conditions: for Normalised Na^+ Conductance Amplitude, Mean: Control = 100
Description: as §1, §2, §3, §4, §5, §6
Pyrethroids such as permethrin are known to be sodium channel modulators. Analysis of the effects of flavesone and permethrin on sodium conductance in the DRG was examined. […]

[5] = tested on: Musca domestica; assay: Knockdown and mortality of houseflies exposed to treated tiles; assay type: in vivo
Description: Each formulation was filled into a hand-held pump sprayer. The treatments were applied to tiles from a distance of 20 cm. The tile was placed on a 0.5 m^2 grid and the entire 0.5 m^2 was sprayed, including the tile, at a rate of 50 mL/m^2. To ensure the correct volume was applied, the pump sprayer was weighed before and after spraying.
The tiles were left for two hours post-treatment to allow the formulation to dry on the tile, before evaluation started.
A control tile that was not treated with any formulation (untreated) was also used.
Ten mixed sex Musca domestica houseflies were placed in a plastic petri dish using a powered aspirator. The petri dish placed over a treated or control tile surface. The petri dish was perforated for ventilation with small holes and a cotton wool plug soaked in sugar solution provided moisture and plugged the insect introduction hole in the petri dish.
The houseflies were constantly exposed to a treated or untreated tile surface. The exposure took place at a temperature of 22±2° C. and about 50% relative humidity (RH).
After 30 minutes exposure, a piece of paper was placed over the tile surface to prevent contact of the houseflies with the treated or untreated tile. The houseflies were held at 22±2° C. and about 50% RH for 24 hours.
Housefly knockdown was noted 15 minutes and 30 minutes after beginning of exposure and 1, 2, 3 and 4 hours after initial exposure.
The above experiment was repeated four times to give five replicates. No statistical analysis was done.

[6] = tested on: Myzus persicae; conditions: 96 hours exposure; first bioassay dose-response curve
[7] = voltage clamp recording configuration
[8] = 0.5% flavesone, Table 3, permethrin experiment

CC1(C)C(C=C(Cl)Cl)C1C(=O)OC(C#N)c1cccc(Oc2ccccc2)c1 (stereo not drawn) [Alpha-cypermethrin]
mortality at 16 µg/mL ([1]; 96 h): 21.6% | mortality at 40 µg/mL ([1]; 96 h): 44.9% | mortality at 60 µg/mL ([1]; 96 h): 52.2% | mortality at 80 µg/mL ([1]; 96 h): 86.9% | LC50 ([1]; 96 h): 44.6 µg/mL (≈ 107 µM)

Cc1nc(N(C)C)nc(OC(=O)N(C)C)c1C [Pirimicarb]
mortality at 10 µg/mL ([1]; 96 h): 20.3% | mortality at 18.5 µg/mL ([1]; 96 h): 36.1% | mortality at 23 µg/mL ([1]; 96 h): 82.8% | mortality at 30 µg/mL ([1]; 96 h): 76.2% | LC50 ([1]; 96 h): 19.7 µg/mL (≈ 82.7 µM)

CC1(C)C(C=C(Cl)Cl)C1C(=O)OCc1cccc(Oc2ccccc2)c1 (stereo not drawn) [Permethrin]
LC50 ([2]; 24 h, read-out: LC50 (ng/ml) (95% CL), Permethrin Dose-Mortality, L3 larvae, Liverpool (LVP, SP susceptible) strain, 24 hours post exposure, Permethrin alone): 26.7 ng/mL | LC50 ([2]; 24 h, read-out: LC50 (ng/ml) (95% CL), Permethrin Dose-Mortality, L3 larvae, Puerto Rico (PRS, SP resistant) strain, 24 hours post exposure, Permethrin alone): 280 ng/mL | LC50 ([2]; 48 h, read-out: LC50 (ng/ml) (95% CL), Permethrin Dose-Mortality, L3 larvae, Liverpool (LVP, SP susceptible) strain, 48 hours post exposure, Permethrin alone): 24.3 ng/mL | LC50 ([2]; 48 h, read-out: LC50 (ng/ml) (95% CL), Permethrin Dose-Mortality, L3 larvae, Puerto Rico (PRS, SP resistant) strain, 48 hours post exposure, Permethrin alone): 231 ng/mL | level of resistance to Permethrin ([2]; Puerto Rico strain larvae as compared to Liverpool strain larvae): approximately 10 fold | effect on potassium channels [3]: no effect on potassium channels | input resistance in DRG neurones [3]: no effect on the input resistance | effect on mean resting potential (Vm) ([3]; 100 μM): no effect | Vm (mV) Mean ([3]; 100 μM permethrin): −61.48 mV | Δ Vm (mV) Mean ([3]; 100 μM permethrin): −08 mV | DRG Normalised No. of Action Potentials @ Vh −50 mV, Mean ([3]; 100 μM permethrin, Control = 100): 17.95 | Normalised Action Potentials Amplitude, Mean ([3]; 100 μM permethrin, Table 8, Control = 100): 99.46 | Normalised Action Potentials Amplitude, Mean ([3]; 100 μM permethrin, Table 9, Control = 100): 100.20 | number of action potentials ([3]; permethrin 100 μM, Table 7): significantly reduced | amplitude of the actions ([3]; permethrin 100 μM, Table 8): no effect | action potential threshold ([3]; permethrin 100 μM, Table 9): no effect | effect on sodium channels [4]: had an effect on sodium channels | Normalised Na^+ Conductance Amplitude, Mean ([4]; 100 μM permethrin, Table 11): 103.47 | Normalised Na^+ Conductance Amplitude, Mean ([4]; 100 μM permethrin, Table 12): 282.56 | sodium conductance amplitude ([4]; permethrin, Table 11): little effect | area under the curve (AUC) ([4]; permethrin, Table 12): significant increase | channel inactivation/deactivation [4, 7]: significantly prolonged channel inactivation | mortality ([5]; 1.25 mg/mL rate, 24 hours post-initial exposure): 62% | knockdown of houseflies ([5]; 2.5 mg/mL and 1.25 mg/mL, any assessment time): < 100% | mortality ([5]; 2.5 mg/mL rate, 24 hours post-initial exposure): 72% | knockdown of houseflies ([5]; both rates (2.5 and 1.25 mg/mL), 1-hour post initial exposure): 94%

CC(C)C(=O)C1C(=O)C(C)(C)C(=O)C(C)(C)C1=O [Flavesone, 1-isobutyroyl-3,3,5,5-tetramethylcyclohexan-2,4,6-trione]
larval phenotype ([2]; addition of flavesone): unambiguous “lethal” larval phenotype | effect on potassium channels [3]: activates one or more potassium channels | input resistance in DRG neurones [3]: reduced input resistance | Vm (mV) Mean ([3]; 0.25% flavesone): −71.51 mV | Δ Vm (mV) Mean ([3]; 0.25% flavesone): −7.80 mV | Normalised No. of Action Potentials @ Vh −50 mV, Mean ([3]; 0.5% flavesone, Control = 100): 74.0 | Vm (mV) Mean ([3]; 0.5% flavesone, Table 2): −73.54 mV | Δ Vm (mV) Mean ([3]; 0.5% flavesone, Table 2): −18.15 mV | Vm (mV) Mean [3, 8]: −80.56 mV | Δ Vm (mV) Mean [3, 8]: −19.63 mV | Normalised Action Potentials Amplitude, Mean ([3]; 0.5% flavesone, Table 5, Control = 100): 77.72 | Normalised Action Potentials Amplitude, Mean ([3]; 0.5% flavesone, Table 6, Control = 100): 90.17 | Vm (mV) Mean ([3]; 1% flavesone): −83.75 mV | Δ Vm (mV) Mean ([3]; 1% flavesone): −29.82 mV | Normalised No. of Action Potentials @ Vh −50 mV, Mean ([3]; 1% flavesone, Control = 100): 65.8 | Normalised Action Potentials Amplitude, Mean ([3]; 1% flavesone, Table 5, Control = 100): 28.35 | Normalised Action Potentials Amplitude, Mean ([3]; 1% flavesone, Table 6, Control = 100): 91.50 | number of action potentials ([3]; flavesone, Table 4): slightly reduced | amplitude of the action potentials ([3]; flavesone, Table 5): reduced | action potential threshold ([3]; flavesone, Table 6): no significant effect | resting potential from current-voltage relations ([3]; in the presence of flavesone): about −84 mV | mean resting potential (Vm) ([3]; reduced from about −62 mV by flavesone): about −84 mV | effect on sodium channels [4]: no effect on sodium channels | area under the curve (AUC) ([4]; 0.5% flavesone, 1% flavesone versus control and wash): no significant difference | Normalised Na^+ Conductance Amplitude, Mean ([4]; 0.5% flavesone): 84.65 | Normalised Na^+ Conductance Amplitude, Mean ([4]; 1% flavesone): 77.56 | sodium conductance amplitude ([4]; flavesone, Table 10): no significant effect | channel inactivation/deactivation [4, 7]: no effect | reduction of sodium channel conductance ([4]; voltage clamp recording configuration, not significantly different to control): approximately 20% | mortality ([5]; both rates (200 mg/mL & 100 mg/mL), 24 hours post initial exposure): 100% | knockdown of houseflies ([5]; rates of 200 mg/mL & 100 mg/mL, after 15 minutes exposure): 100% | mortality at 1200 µg/mL ([1]; 96 h): 10.9% | mortality at 1800 µg/mL ([1]; 96 h): 25.7% | LC50 [1]: 2730 µg/mL (≈ 10800 µM) | LC15 [6]: 1200 mg a.i./L | LC30 [6]: 1800 mg a.i./L
